{"source": "patent US8030335B2", "about": "“Use of liver X receptor agonists” (Laboratoires Fournier S.A., priority 2005, dated 2011)", "origin": "cited, not measured here", "key": {"[1]": {"test_system": "db/db mice", "settings": "cited from earlier work"}, "[2]": {"test_system": "pancreatic islets or insulin-secreting MIN6 cells", "settings": "culture with compound, cited from earlier work"}}}
{"smiles": "O=S(=O)(c1ccccc1)N(CC(F)(F)F)c1ccc(C(O)(C(F)(F)F)C(F)(F)F)cc1", "note": "[T0901317]", "values": [{"measurement": "plasma glucose level", "setting": "[1]; db/db mice (not in normal mice)", "result": "lower plasma glucose level"}, {"measurement": "expression of PEPCK", "setting": "[1]; limits hepatic glucose output", "result": "inhibits"}, {"measurement": "islet insulin content", "setting": "[2]", "result": "increase"}, {"measurement": "glucose-dependent insulin secretion", "setting": "[2]; effect only after >72 h of islet culture", "result": "increase"}]}
